Measurements: ChEMBL document CHEMBL1139653, “Synthesis and biological evaluation of novel hexahydro-pyrido[3',2':4,5]pyrrolo[1,2-a]pyrazines as potent and selective 5-HT(2C) receptor agonists” (Bioorg Med Chem Lett, 2006)

Experiments:
[1] = target: 5-hydroxytryptamine receptor 1D (Homo sapiens, UniProt P28221); assay: Binding affinity to 5HT1D receptor
[2] = target: T1, 5-hydroxytryptamine receptor 2A (Homo sapiens, UniProt P28223)
Description: Binding affinity to human recombinant 5HT2A receptor

D(4) dopamine receptor = D(4) dopamine receptor (Homo sapiens, UniProt P21917); assay: Binding affinity to D4 receptor
[3] = target: 5-hydroxytryptamine receptor 7 (Homo sapiens, UniProt P34969); assay: Binding affinity to 5HT7 receptor
Rattus norvegicus = assay: Reduction of food intake in po dosed Hooded Lister rat; format: functional; settings: read-out: MED
[4] = Binding affinity to sodium channel
[5] = target: T1, 5-hydroxytryptamine receptor 2A; assay: Displacement of [125I]DOI from human recombinant 5HT2A receptor expressed in CHO cells; format: cell-based
[6] = target: Voltage-gated inwardly rectifying potassium channel KCNH2 (Homo sapiens, UniProt Q12809); assay: Inhibition of hERG potassium channel expressed in CHO cells by whole cell patch clamp method; format: toxicity, cell-based
Phospholipidosis [7] = assay: In vitro phospholipidosis in fibroblasts at 20uM; format: ADME
Mu-type opioid receptor = Mu-type opioid receptor (Homo sapiens, UniProt P35372); assay: Binding affinity to mu type opioid receptor
[8] = target: Sodium-dependent serotonin transporter (Homo sapiens, UniProt P31645); assay: Binding affinity to 5HT transporter
[9] = target: Serotonin 3 (5-HT3) receptor; assay: Binding affinity to 5HT3 receptor; format: protein-complex assay, Homo sapiens
[10] = target: Beta-1 adrenergic receptor (Homo sapiens, UniProt P08588); assay: Binding affinity to beta-1 adrenergic receptor
[11] = target: T2, 5-hydroxytryptamine receptor 2B (Homo sapiens, UniProt P41595); assay: Displacement of [3H]5HT from human recombinant 5HT2B receptor expressed in CHO cells; format: cell-based
[12] = target: 5-hydroxytryptamine receptor 1B (Homo sapiens, UniProt P28222); assay: Binding affinity to 5HT1B receptor
[13] = target: T3, 5-hydroxytryptamine receptor 2C (Homo sapiens, UniProt P28335); assay: Efficacy against human recombinant 5HT2C receptor induced intracellular calcium mobilization in CHO cells by FLIPR
T3 sequence (P28335 whole entry): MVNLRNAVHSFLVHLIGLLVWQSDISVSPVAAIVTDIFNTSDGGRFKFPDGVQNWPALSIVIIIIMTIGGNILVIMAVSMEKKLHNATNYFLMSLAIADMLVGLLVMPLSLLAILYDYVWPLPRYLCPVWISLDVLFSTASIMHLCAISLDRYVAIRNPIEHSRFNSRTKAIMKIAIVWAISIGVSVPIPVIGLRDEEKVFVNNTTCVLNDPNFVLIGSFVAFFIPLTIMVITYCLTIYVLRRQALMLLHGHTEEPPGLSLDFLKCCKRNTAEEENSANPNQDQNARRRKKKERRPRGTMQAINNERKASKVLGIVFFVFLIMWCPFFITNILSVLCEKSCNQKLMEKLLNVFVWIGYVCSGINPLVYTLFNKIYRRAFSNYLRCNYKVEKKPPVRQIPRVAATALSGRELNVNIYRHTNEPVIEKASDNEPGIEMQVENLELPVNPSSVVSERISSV

[14] = target: T4, 5-hydroxytryptamine receptor 2C (Homo sapiens) (UniProt P28335); assay: Efficacy against human recombinant 5HT2C receptor expressed in CHO cells at 1 uM in relative to 10 uM 5HT by FLIPR; format: functional, cell-based
T4 sequence (whole entry): T3 sequence (P28335 whole entry)

[15] = target: Adrenergic receptor alpha-1 (Homo sapiens, UniProt P35348+P25100+P35368); assay: Binding affinity to alpha-1 adrenergic receptor; format: protein assay
[16] = target: T3, 5-hydroxytryptamine receptor 2C; assay: Displacement of [3H]5HT from human recombinant 5HT2C receptor expressed in CHO cells; format: cell-based
[17] = target: Sodium-dependent dopamine transporter (Homo sapiens, UniProt Q01959); assay: Binding affinity to DA transporter
[18] = target: 5-hydroxytryptamine receptor 5A (Homo sapiens, UniProt P47898); assay: Binding affinity to 5HT5A receptor
[19] = target: Sodium-dependent noradrenaline transporter (Homo sapiens, UniProt P23975); assay: Binding affinity to NA transporter
[20] = target: 5-hydroxytryptamine receptor 6 (Homo sapiens, UniProt P50406); assay: Binding affinity to 5HT6 receptor
[21] = target: T2, 5-hydroxytryptamine receptor 2B; assay: Efficacy against human recombinant 5HT2B receptor induced intracellular calcium mobilization in CHO cells by FLIPR; format: functional, cell-based
[22] = target: 5-hydroxytryptamine receptor 1A (Homo sapiens, UniProt P08908); assay: Binding affinity to 5HT1A receptor
hERG (KCNH2) = hERG (KCNH2) (Homo sapiens, UniProt Q12809); assay: Inhibition of hERG potassium channel expressed in CHO cells by whole cell patch clamp method at 10 uM; format: toxicity, cell-based; settings: CHO cells expressing hERG
Phospholipidosis [23] = assay: In vitro phospholipidosis in fibroblasts at 7.5uM; format: ADME, cell-based; settings: fibroblast

T1 sequence (P28223 whole entry): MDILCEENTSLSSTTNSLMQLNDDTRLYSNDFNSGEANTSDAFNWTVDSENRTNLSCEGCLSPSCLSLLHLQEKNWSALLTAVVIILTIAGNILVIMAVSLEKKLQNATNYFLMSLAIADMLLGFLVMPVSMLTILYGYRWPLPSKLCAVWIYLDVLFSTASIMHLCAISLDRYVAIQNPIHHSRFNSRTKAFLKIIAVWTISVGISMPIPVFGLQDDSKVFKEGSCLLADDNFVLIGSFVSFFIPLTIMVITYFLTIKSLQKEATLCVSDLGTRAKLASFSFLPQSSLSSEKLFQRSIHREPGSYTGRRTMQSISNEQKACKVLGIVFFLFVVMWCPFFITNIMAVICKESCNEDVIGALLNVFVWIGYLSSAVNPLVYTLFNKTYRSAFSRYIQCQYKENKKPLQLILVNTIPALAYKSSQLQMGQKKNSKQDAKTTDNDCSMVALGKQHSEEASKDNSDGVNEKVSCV
Voltage-gated inwardly rectifying potassium channel KCNH2, sequence (Q12809 whole entry): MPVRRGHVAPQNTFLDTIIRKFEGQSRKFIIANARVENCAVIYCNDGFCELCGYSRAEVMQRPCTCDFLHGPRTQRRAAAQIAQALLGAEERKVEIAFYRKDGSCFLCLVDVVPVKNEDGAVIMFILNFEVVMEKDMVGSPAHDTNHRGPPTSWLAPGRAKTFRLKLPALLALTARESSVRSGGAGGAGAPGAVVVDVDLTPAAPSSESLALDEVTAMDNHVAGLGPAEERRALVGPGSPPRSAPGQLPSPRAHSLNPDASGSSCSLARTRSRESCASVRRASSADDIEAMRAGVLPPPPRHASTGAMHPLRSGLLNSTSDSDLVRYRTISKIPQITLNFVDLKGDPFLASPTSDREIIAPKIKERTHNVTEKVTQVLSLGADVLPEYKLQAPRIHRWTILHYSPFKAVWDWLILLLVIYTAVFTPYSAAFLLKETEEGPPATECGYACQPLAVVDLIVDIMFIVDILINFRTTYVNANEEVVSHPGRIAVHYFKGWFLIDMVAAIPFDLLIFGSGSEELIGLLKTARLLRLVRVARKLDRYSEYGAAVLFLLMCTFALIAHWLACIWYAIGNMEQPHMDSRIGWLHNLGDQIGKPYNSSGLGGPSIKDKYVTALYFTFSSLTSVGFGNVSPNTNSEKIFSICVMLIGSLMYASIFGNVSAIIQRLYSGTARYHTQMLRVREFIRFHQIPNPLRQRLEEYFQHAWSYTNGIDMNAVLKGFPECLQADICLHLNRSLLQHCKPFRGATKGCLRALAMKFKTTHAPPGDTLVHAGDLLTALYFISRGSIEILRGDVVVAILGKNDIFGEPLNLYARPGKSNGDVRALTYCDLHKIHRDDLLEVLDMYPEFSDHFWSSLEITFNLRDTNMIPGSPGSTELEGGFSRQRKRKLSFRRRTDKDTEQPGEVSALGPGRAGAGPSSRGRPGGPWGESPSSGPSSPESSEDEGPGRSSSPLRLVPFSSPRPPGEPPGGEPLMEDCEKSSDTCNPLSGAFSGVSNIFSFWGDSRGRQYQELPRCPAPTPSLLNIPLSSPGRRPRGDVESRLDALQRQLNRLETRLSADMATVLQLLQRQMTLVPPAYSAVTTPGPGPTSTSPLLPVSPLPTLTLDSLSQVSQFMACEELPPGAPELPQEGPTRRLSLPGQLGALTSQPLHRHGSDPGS
T2 sequence (P41595 whole entry): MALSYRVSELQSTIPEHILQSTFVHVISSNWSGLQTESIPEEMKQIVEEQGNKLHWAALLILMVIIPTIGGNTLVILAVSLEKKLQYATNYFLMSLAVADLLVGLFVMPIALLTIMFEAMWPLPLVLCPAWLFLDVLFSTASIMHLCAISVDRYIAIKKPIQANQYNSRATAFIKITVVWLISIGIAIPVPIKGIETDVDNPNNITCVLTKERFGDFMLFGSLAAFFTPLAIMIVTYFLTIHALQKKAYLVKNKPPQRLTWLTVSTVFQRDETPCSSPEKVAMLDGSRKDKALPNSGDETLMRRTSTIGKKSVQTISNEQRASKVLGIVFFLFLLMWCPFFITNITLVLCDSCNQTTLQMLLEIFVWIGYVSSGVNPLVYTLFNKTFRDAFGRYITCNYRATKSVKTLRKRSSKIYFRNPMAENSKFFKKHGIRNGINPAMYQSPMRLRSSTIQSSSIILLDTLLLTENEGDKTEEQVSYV
5-hydroxytryptamine receptor 7, sequence (P34969 whole entry): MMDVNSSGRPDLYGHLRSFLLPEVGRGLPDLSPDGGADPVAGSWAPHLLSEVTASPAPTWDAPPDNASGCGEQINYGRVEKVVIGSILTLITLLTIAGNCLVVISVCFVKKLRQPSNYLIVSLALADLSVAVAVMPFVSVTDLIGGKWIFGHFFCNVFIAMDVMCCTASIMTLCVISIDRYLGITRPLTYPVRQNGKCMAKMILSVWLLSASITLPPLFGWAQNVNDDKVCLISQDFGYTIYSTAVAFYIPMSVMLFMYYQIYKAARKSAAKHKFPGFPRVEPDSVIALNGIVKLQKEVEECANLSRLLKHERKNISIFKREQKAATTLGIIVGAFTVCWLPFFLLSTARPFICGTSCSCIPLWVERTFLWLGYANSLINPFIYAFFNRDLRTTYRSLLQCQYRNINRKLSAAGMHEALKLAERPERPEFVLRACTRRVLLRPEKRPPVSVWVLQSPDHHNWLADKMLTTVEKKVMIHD
Sodium-dependent noradrenaline transporter, sequence (P23975 whole entry): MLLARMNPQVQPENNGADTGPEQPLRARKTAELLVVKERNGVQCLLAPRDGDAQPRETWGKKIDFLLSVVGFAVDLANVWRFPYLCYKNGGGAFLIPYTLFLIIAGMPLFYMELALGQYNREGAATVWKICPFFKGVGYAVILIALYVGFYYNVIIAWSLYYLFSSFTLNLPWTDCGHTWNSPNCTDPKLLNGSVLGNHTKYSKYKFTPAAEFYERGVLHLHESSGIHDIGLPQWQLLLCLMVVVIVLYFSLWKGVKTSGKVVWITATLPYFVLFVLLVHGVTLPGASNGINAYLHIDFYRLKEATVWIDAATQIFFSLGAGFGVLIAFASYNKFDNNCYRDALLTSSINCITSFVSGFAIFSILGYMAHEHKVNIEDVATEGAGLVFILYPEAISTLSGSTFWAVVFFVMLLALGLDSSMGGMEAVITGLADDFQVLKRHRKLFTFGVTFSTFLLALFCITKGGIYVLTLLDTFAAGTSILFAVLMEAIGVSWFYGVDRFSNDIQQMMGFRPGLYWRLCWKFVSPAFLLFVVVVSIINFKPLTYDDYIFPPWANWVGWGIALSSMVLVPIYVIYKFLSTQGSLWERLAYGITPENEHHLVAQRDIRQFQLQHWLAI
5-hydroxytryptamine receptor 1D, sequence (P28221 whole entry): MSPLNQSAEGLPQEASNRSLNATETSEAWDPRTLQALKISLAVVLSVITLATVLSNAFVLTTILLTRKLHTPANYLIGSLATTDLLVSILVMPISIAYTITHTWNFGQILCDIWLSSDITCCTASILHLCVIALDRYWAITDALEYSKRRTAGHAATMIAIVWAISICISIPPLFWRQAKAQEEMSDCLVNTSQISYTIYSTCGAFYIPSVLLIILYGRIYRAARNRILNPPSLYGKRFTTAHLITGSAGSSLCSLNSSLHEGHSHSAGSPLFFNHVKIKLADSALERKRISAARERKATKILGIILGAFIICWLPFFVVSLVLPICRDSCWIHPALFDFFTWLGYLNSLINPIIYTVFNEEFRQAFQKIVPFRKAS
Sodium-dependent serotonin transporter, sequence (P31645 whole entry): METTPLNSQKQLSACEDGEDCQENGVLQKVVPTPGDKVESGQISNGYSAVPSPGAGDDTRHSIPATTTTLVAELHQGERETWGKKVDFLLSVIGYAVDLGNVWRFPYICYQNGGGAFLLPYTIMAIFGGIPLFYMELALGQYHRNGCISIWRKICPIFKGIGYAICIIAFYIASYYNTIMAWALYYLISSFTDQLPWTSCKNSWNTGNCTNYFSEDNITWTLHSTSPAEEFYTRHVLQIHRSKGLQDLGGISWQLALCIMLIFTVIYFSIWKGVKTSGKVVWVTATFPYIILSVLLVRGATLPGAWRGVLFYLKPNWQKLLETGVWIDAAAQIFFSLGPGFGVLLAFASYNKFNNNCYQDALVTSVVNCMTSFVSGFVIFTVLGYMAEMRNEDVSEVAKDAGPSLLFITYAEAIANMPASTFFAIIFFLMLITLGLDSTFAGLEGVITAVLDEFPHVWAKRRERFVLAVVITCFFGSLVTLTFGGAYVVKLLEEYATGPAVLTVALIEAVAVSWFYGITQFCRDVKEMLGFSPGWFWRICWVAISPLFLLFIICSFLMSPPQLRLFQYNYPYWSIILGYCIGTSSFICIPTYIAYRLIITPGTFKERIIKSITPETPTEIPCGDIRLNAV
5-hydroxytryptamine receptor 1B, sequence (P28222 whole entry): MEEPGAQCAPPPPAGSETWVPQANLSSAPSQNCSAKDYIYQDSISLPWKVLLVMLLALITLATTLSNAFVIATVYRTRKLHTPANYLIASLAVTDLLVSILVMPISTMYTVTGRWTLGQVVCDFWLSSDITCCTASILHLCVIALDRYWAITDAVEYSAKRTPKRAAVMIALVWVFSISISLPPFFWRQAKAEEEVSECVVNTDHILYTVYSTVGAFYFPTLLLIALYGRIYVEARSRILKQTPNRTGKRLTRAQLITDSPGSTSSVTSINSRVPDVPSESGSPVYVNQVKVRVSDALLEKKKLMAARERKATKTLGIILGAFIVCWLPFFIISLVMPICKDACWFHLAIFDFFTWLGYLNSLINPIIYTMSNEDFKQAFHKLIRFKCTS
D(4) dopamine receptor, sequence (P21917 whole entry): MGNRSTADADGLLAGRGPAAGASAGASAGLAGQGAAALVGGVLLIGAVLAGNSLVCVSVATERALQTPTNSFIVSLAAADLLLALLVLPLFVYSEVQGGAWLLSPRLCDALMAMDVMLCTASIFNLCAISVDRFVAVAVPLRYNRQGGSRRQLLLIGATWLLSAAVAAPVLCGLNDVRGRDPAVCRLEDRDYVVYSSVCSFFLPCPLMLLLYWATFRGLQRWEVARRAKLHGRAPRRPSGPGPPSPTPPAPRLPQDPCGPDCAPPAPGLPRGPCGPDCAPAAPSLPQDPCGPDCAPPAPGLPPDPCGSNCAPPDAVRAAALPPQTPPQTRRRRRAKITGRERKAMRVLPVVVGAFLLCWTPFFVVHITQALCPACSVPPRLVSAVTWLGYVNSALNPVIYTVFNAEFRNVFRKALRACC

C[C@@H]1CNC[C@H]2Cc3ccc(COCC4CC4)nc3N21
Ki [1]: > 360 nM | pKb [2]: 6.7 | Ki (D(4) dopamine receptor): > 720 nM | Ki [3]: > 1000 nM | minimal effective dose (Rattus norvegicus): 10 mg/kg | Ki [4]: > 1000 nM | Ki [5]: 74 nM | IC50 [6]: > 30000 nM | Phospholipidosis (Phospholipidosis [7]): Not Active | Ki (Mu-type opioid receptor): > 1000 nM | Ki [8]: > 1000 nM | Ki [9]: > 1000 nM | Ki [10]: > 1000 nM | Ki [11]: 174 nM | Ki [12]: > 720 nM | EC50 [13]: 15 nM | Efficacy [14]: 87% | Ki [15]: > 1000 nM | Ki [16]: 3.6 nM | Ki [17]: > 1000 nM | Ki [18]: > 720 nM | Ki [19]: > 1000 nM | Ki [20]: > 720 nM | EC50 [21]: 23 nM | Emax [21]: 31% | Ki [22]: > 720 nM

C[C@@H]1CNC[C@H]2Cc3ccc(C(F)(F)F)nc3N21
Ki [5]: 43 nM | Ki [11]: 68 nM | Efficacy [14]: 96% | Ki [16]: 14 nM

CC(=O)Nc1ccc2c(n1)N1[C@@H](CNC[C@H]1C)C2
Efficacy [14]: 0%

C[C@@H]1CNC[C@H]2Cc3ccc(Cl)nc3N21
Ki [5]: 42 nM | IC50 [6]: 40000 nM | Ki [11]: 48 nM | Efficacy [14]: 98% | Ki [16]: 1.6 nM

COCc1ccc2c(n1)N1[C@@H](CNC[C@H]1C)C2
Ki [5]: 565 nM | Ki [11]: 379 nM | Efficacy [14]: 97% | Ki [16]: 16 nM

C[C@H](O)c1ccc2c(n1)N1[C@@H](CNC[C@H]1C)C2
Ki [5]: 392 nM | Ki [11]: 835 nM | Efficacy [14]: 101% | Ki [16]: 39 nM

C[C@@H]1CNC[C@@H]2Cc3ccc(Cl)nc3N21
Ki [5]: 54 nM | Ki [11]: 217 nM | Efficacy [14]: 81% | Ki [16]: 52 nM

C[C@@H]1CNC[C@H]2Cc3ccc(C#N)nc3N21
Ki [5]: 2550 nM | Ki [11]: 1820 nM | Efficacy [14]: 85% | Ki [16]: 60 nM

CCO[C@@H](C)c1ccc2c(n1)N1[C@@H](CNC[C@H]1C)C2
Ki [5]: 65 nM | inhibition at 10 µM (hERG (KCNH2)): 20% | Ki [11]: 295 nM | Efficacy [14]: 83% | Ki [16]: 2.3 nM

C[C@@H]1CNC[C@@H]2Cc3ccc(Br)nc3N21
Ki [5]: 58 nM | Ki [11]: 166 nM | Efficacy [14]: 87% | Ki [16]: 21 nM

Cc1ccc2c(n1)N1[C@@H](CNC[C@H]1C)C2
Ki [5]: 136 nM | IC50 [6]: 21000 nM | Phospholipidosis (Phospholipidosis [7]): Not Active | Ki [11]: 77 nM | Efficacy [14]: 101% | Ki [16]: 2.7 nM

Cc1c(Cl)ccc2c1N1[C@H](CNC[C@H]1C)C2
Phospholipidosis (Phospholipidosis [23]): 7.5 µM | Ki [5]: 19 nM | Ki [11]: 40 nM

C[C@@H]1CNC[C@H]2Cc3ccc(Br)nc3N21
Ki [5]: 53 nM | Ki [11]: 81 nM | Efficacy [14]: 97% | Ki [16]: 0.8 nM

C[C@@H]1CNC[C@H]2Cc3ccc(CO)nc3N21
Ki [5]: 942 nM | Ki [11]: 1140 nM | Efficacy [14]: 88% | Ki [16]: 54 nM

COc1ccc2c(n1)N1[C@@H](CNC[C@H]1C)C2
Ki [5]: 511 nM | Ki [11]: 440 nM | Efficacy [14]: 77% | Ki [16]: 104 nM

Clc1ccc2c(n1)N1CCNCC1C2 (centres undefined)
Ki [5]: 217 nM | Ki [11]: 221 nM | Ki [16]: 131 nM

CCO[C@H](C)c1ccc2c(n1)N1[C@@H](CNC[C@H]1C)C2
Ki [5]: 2380 nM | Ki [11]: 1310 nM | Efficacy [14]: 86% | Ki [16]: 93 nM
